# From patent publication US5008273A, “Amino acid derivatives and their pharmaceutical use” (Boehringer Ingelheim GmbH, priority 1985, dated 1991)
# Target: angiotensin converting enzyme (Homo sapiens, UniProt P12821)
# Experiment: inhibition of the isolated angiotensin converting enzyme
# Assay type: biochemical
# Excerpt: The following values were obtained for the inhibition of the isolated angiotensin converting enzyme: […]
# Sequence of angiotensin converting enzyme (P12821 30-1306, species assumed): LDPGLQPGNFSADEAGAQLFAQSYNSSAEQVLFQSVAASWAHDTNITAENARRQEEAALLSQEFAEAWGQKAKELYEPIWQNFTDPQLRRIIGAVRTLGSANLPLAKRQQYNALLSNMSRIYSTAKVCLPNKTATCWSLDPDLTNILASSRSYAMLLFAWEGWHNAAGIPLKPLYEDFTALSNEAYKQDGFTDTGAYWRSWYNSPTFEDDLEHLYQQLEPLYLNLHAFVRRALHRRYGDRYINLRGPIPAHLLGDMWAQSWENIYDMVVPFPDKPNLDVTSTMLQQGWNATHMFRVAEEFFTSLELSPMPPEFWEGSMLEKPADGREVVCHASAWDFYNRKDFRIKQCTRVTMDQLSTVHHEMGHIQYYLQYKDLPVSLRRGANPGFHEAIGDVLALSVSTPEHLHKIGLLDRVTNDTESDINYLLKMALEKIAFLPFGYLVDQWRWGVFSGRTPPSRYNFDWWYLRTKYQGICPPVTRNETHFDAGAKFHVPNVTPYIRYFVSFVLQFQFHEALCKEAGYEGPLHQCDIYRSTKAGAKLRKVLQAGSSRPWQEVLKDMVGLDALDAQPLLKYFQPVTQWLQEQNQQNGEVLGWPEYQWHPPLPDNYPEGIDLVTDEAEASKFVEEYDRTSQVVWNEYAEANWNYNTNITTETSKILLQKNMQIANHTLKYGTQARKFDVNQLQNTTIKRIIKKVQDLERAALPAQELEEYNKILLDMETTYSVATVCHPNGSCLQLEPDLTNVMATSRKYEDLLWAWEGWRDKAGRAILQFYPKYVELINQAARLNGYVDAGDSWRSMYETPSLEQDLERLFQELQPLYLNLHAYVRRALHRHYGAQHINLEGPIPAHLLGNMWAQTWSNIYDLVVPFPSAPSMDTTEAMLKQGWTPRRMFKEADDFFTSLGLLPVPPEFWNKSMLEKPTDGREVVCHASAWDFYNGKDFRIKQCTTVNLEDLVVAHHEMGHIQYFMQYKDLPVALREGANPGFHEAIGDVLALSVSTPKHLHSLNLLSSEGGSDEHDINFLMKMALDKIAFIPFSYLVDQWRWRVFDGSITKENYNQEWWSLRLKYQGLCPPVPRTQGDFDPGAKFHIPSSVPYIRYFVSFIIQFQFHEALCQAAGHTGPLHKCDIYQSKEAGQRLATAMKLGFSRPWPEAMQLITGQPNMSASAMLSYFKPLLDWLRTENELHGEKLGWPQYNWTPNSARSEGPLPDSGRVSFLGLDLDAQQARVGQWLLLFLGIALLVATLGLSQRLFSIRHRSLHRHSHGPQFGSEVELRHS
row,IC50 [nM],SMILES
1,3.5,"NCCCC[C@H](N[C@@H](CCc1ccccc1)C(=O)O)C(=O)N1CCc2sccc2[C@H]1C(=O)O [Example 2, N-[N-(1(S)-Carboxy-3-phenylpropyl)-L-lysyl]4,5,6,7-tetrahydro-thieno[3,2-c]pyridine-4(S)-carboxylic acid]"
2,18,"NCCCC[C@H](N[C@@H](CCc1ccccc1)C(=O)O)C(=O)N1CCc2ccsc2[C@@H]1C(=O)O [Example 4, N-[N-(1(S)-Carboxy-3-phenylpropyl)-L-lysyl]4,5,6,7-tetrahydro-thieno[2,3-c]pyridine-7(S)-carboxylic acid]"
3,14,"NCCCC[C@H](N[C@@H](CCc1ccccc1)C(=O)O)C(=O)N1Cc2sccc2C[C@H]1C(=O)O [Example 7, N-[N-(1(S)-Carboxy-3-phenylpropyl)-L-lysyl]-4,5,6,7-tetrahydro-thieno[2,3-c]pyridine-5(S)-carboxylic acid]"
4,2.9,"NCCCC[C@H](N[C@@H](CCc1ccccc1)C(=O)O)C(=O)N1Cc2ccsc2C[C@H]1C(=O)O [Example 10, N-[N-(1(S)-Carboxy-3-phenylpropyl)-L-lysyl]-4,5,6,7-tetrahydro-thieno[3,2-c]pyridine-6(S)-carboxylic acid]"
